# Results: patent publication US4146719A, “Piperazinyl derivatives of quinoline carboxylic acids” (priority 1977, dated 1979)
# Tests used:
# [1] = system: Salmonella enteritidis IID 604; assay: Antibacterial activity in vitro, M.I.C., agar dilution streak method; type: cell-based; details: Salmonella enterica; Gram -; read-out: M.I.C.
# [2] = Concentrations in urine of rats after a single oral administration; type: in vivo; details: rat; for concentration at 3 h: 0-3 hours; for concentration at 3 h / concentration at 6 h / concentration at 24 h / concentration at 27 h: mean ±S.E., read-out: Urinary level; for concentration at 6 h: 3-6 hours; for concentration at 24 h: 6-24 hours; for concentration at 27 h: 24-27 hours
# [3] = system: Str. pyogenes S-8; assay: Antibacterial activity in vitro, M.I.C., agar dilution streak method; type: cell-based, Streptococcus pyogenes; details: Streptococcus pyogenes, S8; Gram +; read-out: M.I.C.
# [4] = system: Pseudomonas aeruginosa V-1; assay: as above; type: cell-based; details: Pseudomonas aeruginosa, V1; Gram -; read-out: M.I.C.
# [5] = system: Escherichia coli NIHJ JC-2; assay: Influence of kidney homogenate on antibacterial activity; type: cell-based
# Procedure: Nutrient agar was heated and melted. […] The diameter of the inhibition zone was measured.
# [6] = system: Mycobacterium phlei IFO 3142; assay: Antibacterial activity in vitro, M.I.C., agar dilution streak method; type: cell-based; details: Mycolicibacterium phlei, IFO3142; Gram +; read-out: M.I.C.
# [7] = system: Neisseria perflava IID 856; assay: as above; type: cell-based; details: Neisseria perflava, IID856; Gram -; read-out: M.I.C.
# [8] = system: chromosome of myelocytes; design: species or system rats; details: rat, in vivo, po, 1000 mg/kg
# [9] = Serum concentrations at 30 min. after a single oral administration in rats; details: rat
# [10] = system: Ps. aeruginosa IID 1210; assay: Antibacterial activity in vitro, M.I.C., agar dilution streak method; type: cell-based, Pseudomonas aeruginosa; details: Pseudomonas aeruginosa, IID1210; Gram -; read-out: M.I.C.
# [11] = system: Sta. aureus ATCC 14775; assay: as above; type: cell-based, Staphylococcus aureus; details: Staphylococcus aureus, ATCC14775; Gram +; read-out: M.I.C.
# [12] = system: Str. faecalis IID 682; assay: as above; type: cell-based; details: Enterococcus faecalis, IID682; Gram +
# [13] = system: My. smegmatis IFO 3083; assay: as above; type: cell-based; details: Mycolicibacterium smegmatis, IFO3083; Gram +; read-out: M.I.C.
# [14] = system: Shigella sonnei IID 969; assay: as above; type: cell-based; details: Shigella sonnei, IID969; Gram -
# [15] = Concentrations in tissues after a single oral administration of 50 mg/kg in rats; details: rat; for Tissue level, liver (free concentration): 50 mg/kg oral, mean ± S.E.
# Procedure: Nutrient agar was heated and melted. Escherichia coli NIHJ JC-2 was added to melted agar, and well mixed, and 5 ml of the mixture was placed in Petri dish. Penicylinders were placed on the solidified agar, and the cylinder was filled with serum sample. The plate was placed in the incubator of 37° C. for 20 hours. The diameter of the inhibition zone was measured.
# The tissue homogenates were prepared with 1:4 homogenates in M/15 phosphate buffer (pH 7.5).
# [16] = Concentrations in urine of mice after a single oral administration; type: in vivo; details: mouse; for concentration at 3 h: 0-3 hours; for concentration at 3 h / concentration at 6 h / concentration at 24 h / concentration at 27 h: mean ±S.E., read-out: Urinary level; for concentration at 6 h: 3-6 hours; for concentration at 24 h: 6-24 hours; for concentration at 27 h: 24-27 hours
# [17] = oral, read-out: time of concentrations peak in urine
smiles,measurement,setting,value
"CCn1cc(C(=O)O)c(=O)c2cc(F)c(N3CCNCC3)cc21 [Compound (II), 1-ethyl-6-fluoro-1,4-dihydro-7-(1-piperazinyl)-4-oxoquinoline-3-carboxylicacid]",MIC,[1],0.2 µg/mL
same,concentration at 3 h,[2]; 1.56 mg/kg oral,1360 ± 140 ng/mL
same,concentration at 6 h,[2]; 1.56 mg/kg oral,930 ± 140 ng/mL
same,concentration at 24 h,[2]; 1.56 mg/kg oral,170 ± 50 ng/mL
same,concentration at 27 h,[2]; 1.56 mg/kg oral,40 ± 10 ng/mL
same,concentration at 3 h,[2]; 3.13 mg/kg oral,3390 ± 550 ng/mL
same,concentration at 6 h,[2]; 3.13 mg/kg oral,3780 ± 440 ng/mL
same,concentration at 24 h,[2]; 3.13 mg/kg oral,580 ± 90 ng/mL
same,concentration at 27 h,[2]; 3.13 mg/kg oral,30 ng/mL
same,concentration at 3 h,[2]; 6.25 mg/kg oral,9690 ± 2300 ng/mL
same,concentration at 6 h,[2]; 6.25 mg/kg oral,8080 ± 1500 ng/mL
same,concentration at 24 h,[2]; 6.25 mg/kg oral,1360 ± 200 ng/mL
same,concentration at 27 h,[2]; 6.25 mg/kg oral,40 ng/mL
same,concentration at 3 h,[2]; 12.5 mg/kg oral,21900 ± 3600 ng/mL
same,concentration at 6 h,[2]; 12.5 mg/kg oral,16800 ± 1600 ng/mL
same,concentration at 24 h,[2]; 12.5 mg/kg oral,4000 ± 500 ng/mL
same,concentration at 27 h,[2]; 12.5 mg/kg oral,60 ± 20 ng/mL
same,concentration at 3 h,[2]; 25.0 mg/kg oral,56800 ± 11100 ng/mL
same,concentration at 6 h,[2]; 25.0 mg/kg oral,46400 ± 3800 ng/mL
same,concentration at 24 h,[2]; 25.0 mg/kg oral,13500 ± 3000 ng/mL
same,concentration at 27 h,[2]; 25.0 mg/kg oral,1200 ± 500 ng/mL
same,concentration at 3 h,[2]; 50.0 mg/kg oral,89300 ± 19500 ng/mL
same,concentration at 6 h,[2]; 50.0 mg/kg oral,99200 ± 15900 ng/mL
same,concentration at 24 h,[2]; 50.0 mg/kg oral,32200 ± 100 ng/mL
same,concentration at 27 h,[2]; 50.0 mg/kg oral,3100 ± 900 ng/mL
same,Tmax,[2]; [17],0 to 6 h
same,MIC,[3],1.56 µg/mL
same,MIC,[4],0.39 µg/mL
same,antibacterial activity in presence of kidney homogenate (in words),[5],decreased by liver and kidney homogenate
same,MIC,[6],0.39 µg/mL
same,MIC,[7],0.05 µg/mL
same,effects on chromosome of myelocytes (in words),[8],no effects of the test compound on chromosome of myelocytes were observed
same,concentration at 0.5 h,[9]; 25 mg/kg,310 ± 40 ng/mL
same,concentration at 0.5 h,[9]; 50 mg/kg,870 ± 110 ng/mL
same,concentration at 0.5 h,[9]; 100 mg/kg,1420 ± 230 ng/mL
same,concentration at 0.5 h,[9]; 200 mg/kg,2230 ± 300 ng/mL
same,concentration at 0.5 h,[9]; 400 mg/kg,3370 ± 350 ng/mL
same,MIC,[10],1.56 µg/mL
same,MIC,[11],1.56 µg/mL
same,MIC,[12],3.13 µg/mL
same,MIC,[13],1.56 µg/mL
same,MIC,[14],0.1 µg/mL
same,"Tissue level, liver (free concentration)",[15]; 0.5 hrs.,4.1 ± 0.9 µg/g
same,"Tissue level, liver (free concentration)",[15]; 1 hr.,3.7 ± 0.6 µg/g
same,"Tissue level, liver (free concentration)",[15]; 2 hrs.,2.5 ± 0.5 µg/g
same,"Tissue level, liver (free concentration)",[15]; 4 hrs.,1.2 ± 0.2 µg/g
same,"Tissue level, liver (free concentration)",[15]; 6 hrs.,0.7 ± 0.1 µg/g
same,concentration at 0.5 h,"[15]; liver, po, 50 mg/kg",9000 ± 1900 ng/g
same,concentration at 1 h,"[15]; liver, po, 50 mg/kg",7900 ± 1200 ng/g
same,concentration at 2 h,"[15]; liver, po, 50 mg/kg",5400 ± 1000 ng/g
same,concentration at 4 h,"[15]; liver, po, 50 mg/kg",2600 ± 400 ng/g
same,concentration at 6 h,"[15]; liver, po, 50 mg/kg",1500 ± 200 ng/g
same,concentration at 3 h,[16]; 1.56 mg/kg oral,530 ± 60 ng/mL
same,concentration at 6 h,[16]; 1.56 mg/kg oral,220 ± 40 ng/mL
same,concentration at 24 h,[16]; 1.56 mg/kg oral,40 ± 30 ng/mL
same,concentration at 27 h,[16]; 1.56 mg/kg oral,30 ± 20 ng/mL
same,concentration at 3 h,[16]; 3.13 mg/kg oral,1760 ± 190 ng/mL
same,concentration at 6 h,[16]; 3.13 mg/kg oral,1460 ± 230 ng/mL
same,concentration at 24 h,[16]; 3.13 mg/kg oral,270 ± 40 ng/mL
same,concentration at 27 h,[16]; 3.13 mg/kg oral,140 ± 10 ng/mL
same,concentration at 3 h,[16]; 6.25 mg/kg oral,3700 ± 260 ng/mL
same,concentration at 6 h,[16]; 6.25 mg/kg oral,2040 ± 130 ng/mL
same,concentration at 24 h,[16]; 6.25 mg/kg oral,3010 ± 170 ng/mL
same,concentration at 27 h,[16]; 6.25 mg/kg oral,380 ± 50 ng/mL
same,concentration at 3 h,[16]; 12.5 mg/kg oral,10300 ± 900 ng/mL
same,concentration at 6 h,[16]; 12.5 mg/kg oral,8300 ± 700 ng/mL
same,concentration at 24 h,[16]; 12.5 mg/kg oral,7400 ± 800 ng/mL
same,concentration at 27 h,[16]; 12.5 mg/kg oral,1200 ± 100 ng/mL
same,concentration at 3 h,[16]; 25.0 mg/kg oral,16200 ± 3300 ng/mL
same,concentration at 6 h,[16]; 25.0 mg/kg oral,20300 ± 1700 ng/mL
same,concentration at 24 h,[16]; 25.0 mg/kg oral,11700 ± 900 ng/mL
same,concentration at 27 h,[16]; 25.0 mg/kg oral,2500 ± 200 ng/mL
same,concentration at 3 h,[16]; 50.0 mg/kg oral,33100 ± 2800 ng/mL
same,concentration at 6 h,[16]; 50.0 mg/kg oral,27200 ± 3200 ng/mL
same,concentration at 24 h,[16]; 50.0 mg/kg oral,23100 ± 2000 ng/mL
same,concentration at 27 h,[16]; 50.0 mg/kg oral,7700 ± 1100 ng/mL
same,Tmax,[16]; [17],0 to 6 h
